Experimental data as given in US11357817B2, “Immunoproteasome inhibitor” (The Regents of the University of California, priority 2017, dated 2022).

Key:
[1] = tested on: 20S Plasmodium proteasome (Pf20S) β1 subunit; test: Proteasome activity assay, Pf20S β1 (z-LLE-AMC); assay type: biochemical, Plasmodium falciparum; settings: 450 nM compound; proteasome not named
Procedure: Asynchronous P. falciparum cultures were grown up to 4-5% parasitemia, in 300 mL of RPMI media at 5.0% hematocrit. […] The PBS was removed and lysis buffer (0.15% saponin in PBS) was added on ice in 10 pellet volumes. Upon lysis of red blood cells, indicated by a clear red supernatant, the lysed cultures were centrifuged at 3200×g for 12 minutes at 4° C. The supernatant was removed by aspiration and the cells were washed twice using chilled PBS in microcentrifuge tubes. The cell pellets were then incubated on ice for 1 hour with occasional vortexing in a buffer consisting of 20 mM Tris-HCl pH 7.5, 5 mM MgCl2, 1 mM DTT, 100 μM E-64 and 1 mM AEBSF. This sample was then subjected to 3 rounds of freezing (−80° C.) and thawing (37° C.) and centrifugation at 6000×g for 10 min. The supernatant containing soluble P. falciparum protein was quantified by the BCA method (Pierce).
P. falciparum proteasome was enriched by two-chromatographic steps reported previously (10). […] The AMC fluorophore release was monitored at Ex 340/Em 465 nm at 24° C. using a Synergy HTX multi-mode reader (Biotek). […] Proteins were eluted using 20 mM Tris-HCl pH 7.5, 100 mM NaCl, 10% glycerol and 1 mL fractions were collected, evaluated for protease activity and pooled. […]

[2] = biological target: Pf20S (Plasmodium falciparum, UniProt A0A5K1K7U1+Q8IJT1); test: Calculation of inhibition constants (inactivation kinetics), Pf20S; assay type: biochemical
Pf20S, sequence (A0A5K1K7U1 entry or part of it): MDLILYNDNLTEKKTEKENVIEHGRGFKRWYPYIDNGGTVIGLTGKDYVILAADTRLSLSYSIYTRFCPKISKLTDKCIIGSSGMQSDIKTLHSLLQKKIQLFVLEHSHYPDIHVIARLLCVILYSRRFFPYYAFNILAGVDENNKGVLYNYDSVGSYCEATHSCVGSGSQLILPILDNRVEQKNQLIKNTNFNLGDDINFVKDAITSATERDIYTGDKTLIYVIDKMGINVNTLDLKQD
Pf20S, sequence (Q8IJT1 entry or part of it): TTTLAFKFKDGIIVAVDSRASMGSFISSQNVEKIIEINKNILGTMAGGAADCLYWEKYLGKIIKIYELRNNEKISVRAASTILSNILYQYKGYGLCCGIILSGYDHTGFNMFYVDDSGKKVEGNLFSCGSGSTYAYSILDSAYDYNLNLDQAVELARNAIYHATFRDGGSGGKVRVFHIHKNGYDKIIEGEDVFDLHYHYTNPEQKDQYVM
Procedure: The rate of AMC release was calculated in the presence of serial dilution of each inhibitor. The rate of product formation were calculated at 30 min intervals for 4 hours, and normalized to activity DMSO control to calculate inactivation curves. Kobs values for each inhibitor concentration were calculated from inactivation curves, and inhibition constants KI and kinact were calculated by non-linear regression of Kobs and inhibitor concentration using GraphPad Prism 6 software.

[3] = tested on: 20S Plasmodium proteasome (Pf20S) β5 subunit; test: Proteasome activity assay, Pf20S β5 (suc-LLVY-AMC); assay type: biochemical, Plasmodium falciparum
Procedure: Asynchronous P. falciparum cultures were grown up to 4-5% parasitemia, in 300 mL of RPMI media at 5.0% hematocrit. Cultures were then transferred to 50 mL conical tubes, pelleted via centrifugation at 800 g for 5 min, and washed once with 1×PBS and pelleted again as above. The PBS was removed and lysis buffer (0.15% saponin in PBS) was added on ice in 10 pellet volumes. Upon lysis of red blood cells, indicated by a clear red supernatant, the lysed cultures were centrifuged at 3200×g for 12 minutes at 4° C. The supernatant was removed by aspiration and the cells were washed twice using chilled PBS in microcentrifuge tubes. The cell pellets were then incubated on ice for 1 hour with occasional vortexing in a buffer consisting of 20 mM Tris-HCl pH 7.5, 5 mM MgCl2, 1 mM DTT, 100 μM E-64 and 1 mM AEBSF. This sample was then subjected to 3 rounds of freezing (−80° C.) and thawing (37° C.) and centrifugation at 6000×g for 10 min. The supernatant containing soluble P. falciparum protein was quantified by the BCA method (Pierce).
P. falciparum proteasome was enriched by two-chromatographic steps reported previously (10). In brief, 10 mg of P. falciparum protein was concentrated to 1 mL using a 100 kDa centrifugal filter unit (Amicon) and loaded onto a 5 mL anion exchange HiTrap DEAE FF column (GE Healthcare). […] The AMC fluorophore release was monitored at Ex 340/Em 465 nm at 24° C. using a Synergy HTX multi-mode reader (Biotek). […] Proteins were eluted using 20 mM Tris-HCl pH 7.5, 100 mM NaCl, 10% glycerol and 1 mL fractions were collected, evaluated for protease activity and pooled.
To estimate the concentration of Pf20S in the final pooled sample, protein was denatured and loaded into a 4-12% Bis-Tris Plus gel (Thermo Fisher Scientific) beside 60 to 100 ng of human constitutive proteasome (Boston Biochem). […] For inhibition assays, inhibitor and substrate were added simultaneously to the enzyme and the rate of AMC release was determined from 60 to 120 minutes and compared to a DMSO control.

SMILES: CCCCCC(=O)N[C@@H](C(=O)N[C@@H](CCCC)C(=O)N[C@@H](CC(C)C)C(=O)[C@@]1(C)CO1)C(C)C [Analog 18, (S)-2-((R)-2-hexanamido-3-methylbutanamido)-N—((S)-4-methyl-1-((R)-2-methyloxiran-2-yl)-1-oxopentan-2-yl)hexanamide]
- β1 activity reduced [1]: 6%
- Ki ([2]; Pf20S): 0.372 µM
- reduction in potency to the Pf20S proteasome ([2]; kinact/Ki, 18 versus 1): 10 fold
- decrease in β5 activity ([3]; 450 nM compound, proteasome not named): 45%
- potency towards Pf20S compared with c20S ([3]; β5 activity, 50 nM compound): more potent towards Pf20S than c20S
